Test system: Escherichia coli (ATCC 25922)
Assay: Microbicidal activity against Escherichia coli (suspension test, surviving CFU)
Format: cell-based
Settings: inoculum 1630000 CFU
Source text: Each solution was used alone for the individual controls. Organism suspensions were used to achieve a final target concentration of 2-3×10^6 CFU per ml. For the binary system treatments, sodium hypochlorite solution and hydrogen peroxide solution, non-acidified or acidified, were sequentially added to the microorganisms. Acidified hydrogen peroxide solution was obtained by the addition of 1.0% v/v of 0.001 N hydrochloride solution. After each addition, the resulting mixture was allowed to remain in contact with the organisms for a set amount of time at room temperature (about 22° C.), as listed in the Tables 1 and 2. At the end of the treatment time, the mixtures were neutralized with 200 to 500 microliters of thiosulfate solution (2.4%) to quench the activity of sodium hypochlorite and then treated with 100 to 200 microliters of a 1% catalase solution, containing a minimum of 100 units/ul, to quench the hydrogen peroxide activity. If needed, an appropriate volume of sterile saline was added to bring the final volume of reaction mixture to 1.4 ml after neutralization. Serial dilution plate counts were performed from the contents of each vial in sterile saline and inoculated onto TSA for quantitative culture. Plates were then incubated at 37° C. and counts taken at 24 hours. […]

[Na+].[O-]Cl [NaOCl, sodium hypochlorite]
Log 10 (CFU + 1) Survivors (NaOCl 0.01 mM 15 min): 6.1
Total Viability (CFU) (NaOCl 0.01 mM 15 min): 1218000 CFU
Log 10 (CFU + 1) Survivors (NaOCl 0.02 mM 15 min): 5.9
Total Viability (CFU) (NaOCl 0.02 mM 15 min): 784000 CFU
Log 10 (CFU + 1) Survivors (NaOCl 0.03 mM 15 min): 3.0
Total Viability (CFU) (NaOCl 0.03 mM 15 min): 994 CFU

Source: US20070264355A1, “BINARY COMPOSITIONS AND METHODS FOR STERILIZATION” (Binary, LLC, priority 2005, published 2007)
